This passage reports remaining binding results from article PMC10924921, “Mi-2β promotes immune evasion in melanoma by activating EZH2 methylation” (Nature Communications, 2024).

Holding throughout (experiment): biochemical
What all share (parameters): KINOMEscan active-site competition binding panel (468 kinase assays), per cent of control at 1000 nM
Details in all cases: KINOMEscan per cent of control (binding competition); read-out: Percent Control

Experiment [1] addresses T1, ABL1(Q252H)-nonphosphorylated (Homo sapiens, UniProt P00519, Q252H).
T1 construct: nonphosphorylated
The source says: (§1) Figure S7 / Percent Control

Another experiment has as its target ALK(L1196M) (Homo sapiens, UniProt Q9UM73, L1196M).
Excerpt: as §1

For a further experiment, the target named is CAMK2B (Homo sapiens, UniProt Q13554).
Excerpt: as §1

Another experiment deals with T2, CDK4-cyclinD1 (Homo sapiens, UniProt P11802).
T2 construct: cyclinD1
Excerpt: as §1

For a further experiment, the target named is CHEK1 (Homo sapiens, UniProt O14757).
Sequence of CHEK1 (O14757 whole entry): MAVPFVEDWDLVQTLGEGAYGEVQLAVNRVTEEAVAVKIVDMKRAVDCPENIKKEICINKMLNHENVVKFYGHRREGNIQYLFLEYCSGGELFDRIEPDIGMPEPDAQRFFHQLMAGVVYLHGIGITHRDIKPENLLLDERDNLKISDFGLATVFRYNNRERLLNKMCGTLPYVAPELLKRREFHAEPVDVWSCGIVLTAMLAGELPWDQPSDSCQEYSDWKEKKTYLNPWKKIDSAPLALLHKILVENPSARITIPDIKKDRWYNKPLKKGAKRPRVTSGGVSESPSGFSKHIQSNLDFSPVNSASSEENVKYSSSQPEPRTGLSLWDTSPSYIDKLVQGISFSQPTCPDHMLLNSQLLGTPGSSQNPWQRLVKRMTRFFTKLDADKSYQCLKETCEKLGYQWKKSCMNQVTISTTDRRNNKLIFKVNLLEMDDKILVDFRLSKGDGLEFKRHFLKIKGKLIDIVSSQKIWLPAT
Excerpt: as §1

In a further experiment the target is CSNK1E (Homo sapiens, UniProt P49674).
Excerpt: as §1

The next experiment has as its target DMPK (Homo sapiens, UniProt Q09013).
Excerpt: as §1

The target in the next experiment is EGFR(L858R,T790M) (Homo sapiens, UniProt P00533, L858R/T790M).
Excerpt: as §1

Another experiment has as its target EPHB4 (Homo sapiens, UniProt P54760).
Excerpt: as §1

A further experiment addresses FLT3(N841I) (Homo sapiens, UniProt P36888, N841I).
Excerpt: as §1

Experiment [2] addresses T3, JAK3(JH1domain-catalytic) (Homo sapiens, UniProt P52333).
T3 construct: JH1domain-catalytic
Excerpt: as §1

In another experiment the target is T4, MEK1 (Homo sapiens, UniProt Q02750).
T4 construct: gene MAP2K1
Excerpt: as §1

A further experiment deals with T5, MRCKB (Homo sapiens, UniProt Q9Y5S2).
T5 construct: gene CDC42BPB
T5 sequence (Q9Y5S2 whole entry): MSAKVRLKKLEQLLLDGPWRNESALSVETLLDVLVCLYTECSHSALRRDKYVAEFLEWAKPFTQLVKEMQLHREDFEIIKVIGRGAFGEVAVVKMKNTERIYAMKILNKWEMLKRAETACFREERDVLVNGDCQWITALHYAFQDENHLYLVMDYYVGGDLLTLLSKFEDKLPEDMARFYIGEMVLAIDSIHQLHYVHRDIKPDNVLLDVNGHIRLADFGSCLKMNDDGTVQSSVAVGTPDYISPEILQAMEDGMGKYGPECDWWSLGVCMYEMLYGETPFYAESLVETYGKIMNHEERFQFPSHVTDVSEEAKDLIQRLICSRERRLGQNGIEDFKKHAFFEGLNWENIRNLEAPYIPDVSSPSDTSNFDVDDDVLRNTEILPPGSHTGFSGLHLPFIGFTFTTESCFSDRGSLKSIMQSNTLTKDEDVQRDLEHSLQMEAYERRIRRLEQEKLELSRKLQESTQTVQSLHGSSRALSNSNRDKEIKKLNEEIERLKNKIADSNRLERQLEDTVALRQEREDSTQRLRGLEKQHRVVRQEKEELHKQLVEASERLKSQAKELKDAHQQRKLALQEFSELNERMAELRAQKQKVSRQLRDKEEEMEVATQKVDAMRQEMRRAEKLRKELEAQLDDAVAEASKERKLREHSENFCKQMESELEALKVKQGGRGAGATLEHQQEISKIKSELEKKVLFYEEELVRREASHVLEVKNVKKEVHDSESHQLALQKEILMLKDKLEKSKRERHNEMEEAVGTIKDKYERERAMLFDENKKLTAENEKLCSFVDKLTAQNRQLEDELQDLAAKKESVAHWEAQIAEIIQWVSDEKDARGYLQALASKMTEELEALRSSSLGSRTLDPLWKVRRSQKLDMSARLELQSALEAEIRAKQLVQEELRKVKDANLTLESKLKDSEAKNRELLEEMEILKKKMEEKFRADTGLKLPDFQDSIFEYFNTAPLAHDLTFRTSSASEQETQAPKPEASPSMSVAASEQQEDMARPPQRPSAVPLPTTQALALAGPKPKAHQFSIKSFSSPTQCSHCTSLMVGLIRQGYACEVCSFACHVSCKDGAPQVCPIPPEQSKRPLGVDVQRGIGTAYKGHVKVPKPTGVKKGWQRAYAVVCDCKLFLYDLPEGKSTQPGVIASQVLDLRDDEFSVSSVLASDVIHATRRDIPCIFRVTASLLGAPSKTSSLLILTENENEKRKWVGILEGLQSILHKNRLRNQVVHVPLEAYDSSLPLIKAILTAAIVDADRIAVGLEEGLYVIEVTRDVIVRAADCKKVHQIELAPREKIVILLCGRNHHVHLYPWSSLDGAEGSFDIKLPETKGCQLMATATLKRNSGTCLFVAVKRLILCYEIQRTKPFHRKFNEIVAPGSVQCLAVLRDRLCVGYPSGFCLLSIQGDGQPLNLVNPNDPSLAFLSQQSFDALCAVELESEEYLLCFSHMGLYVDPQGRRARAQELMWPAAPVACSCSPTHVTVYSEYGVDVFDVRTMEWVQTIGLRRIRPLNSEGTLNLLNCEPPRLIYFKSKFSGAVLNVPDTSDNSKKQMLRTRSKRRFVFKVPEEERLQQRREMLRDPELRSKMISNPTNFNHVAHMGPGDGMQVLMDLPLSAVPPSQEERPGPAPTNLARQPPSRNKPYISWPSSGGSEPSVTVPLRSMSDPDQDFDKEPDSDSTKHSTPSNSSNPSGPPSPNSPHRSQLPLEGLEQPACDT
Excerpt: as §1

For another experiment, the target named is NEK7 (Homo sapiens, UniProt Q8TDX7).
Excerpt: as §1

The target in the next experiment is PHKG2 (Homo sapiens, UniProt P15735).
Excerpt: as §1

Another experiment concerns the target PIK3CA(E545K) (Homo sapiens, UniProt P42336, E545K).
Excerpt: as §1

A further experiment has as its target PIP5K1A (Homo sapiens, UniProt Q99755).
Excerpt: as §1

For the next experiment, the target named is T6, PIP5K2B (Homo sapiens, UniProt P78356).
T6 construct: gene PIP4K2B
Excerpt: as §1

A further experiment addresses PLK2 (Homo sapiens, UniProt Q9NYY3).
Excerpt: as §1

In a further experiment the target is PRKG2 (Homo sapiens, UniProt Q13237).
Excerpt: as §1

Another experiment addresses T7, PRKR (Homo sapiens, UniProt P19525).
T7 construct: gene EIF2AK2
Excerpt: as §1

The target of experiment [3] is T8, RPS6KA5(Kin.Dom.1-N-terminal) (Homo sapiens, UniProt O75582).
T8 construct: Kin.Dom.1-N-terminal
Excerpt: as §1

The next experiment deals with T9, TRKB (Homo sapiens, UniProt Q16620).
T9 construct: gene NTRK2
T9 sequence (Q16620 whole entry): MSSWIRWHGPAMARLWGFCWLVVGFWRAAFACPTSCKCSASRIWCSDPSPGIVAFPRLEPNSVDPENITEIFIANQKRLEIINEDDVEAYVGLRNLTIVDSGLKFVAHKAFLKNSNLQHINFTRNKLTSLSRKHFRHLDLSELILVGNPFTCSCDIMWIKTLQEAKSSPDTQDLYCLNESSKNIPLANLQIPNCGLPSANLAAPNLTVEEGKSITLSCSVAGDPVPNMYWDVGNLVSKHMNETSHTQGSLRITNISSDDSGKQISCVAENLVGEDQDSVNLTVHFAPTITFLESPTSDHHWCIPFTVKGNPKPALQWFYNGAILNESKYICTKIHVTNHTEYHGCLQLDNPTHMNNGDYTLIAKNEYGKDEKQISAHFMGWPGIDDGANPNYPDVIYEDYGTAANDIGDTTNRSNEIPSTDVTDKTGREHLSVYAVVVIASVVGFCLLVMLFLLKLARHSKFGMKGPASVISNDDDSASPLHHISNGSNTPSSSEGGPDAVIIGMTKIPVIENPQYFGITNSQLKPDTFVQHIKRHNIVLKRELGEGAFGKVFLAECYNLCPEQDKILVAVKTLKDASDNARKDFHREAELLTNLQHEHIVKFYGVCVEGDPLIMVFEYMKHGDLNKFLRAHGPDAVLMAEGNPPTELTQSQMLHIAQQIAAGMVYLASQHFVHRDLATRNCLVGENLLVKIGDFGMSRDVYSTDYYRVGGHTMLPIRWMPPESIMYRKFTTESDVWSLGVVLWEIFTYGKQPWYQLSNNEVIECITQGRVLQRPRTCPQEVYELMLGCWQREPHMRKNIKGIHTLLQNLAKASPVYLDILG
Excerpt: as §1

The next experiment has as its target WNK1 (Homo sapiens, UniProt Q9H4A3).
Excerpt: as §1

Sequence of PLK2 (Q9NYY3 whole entry): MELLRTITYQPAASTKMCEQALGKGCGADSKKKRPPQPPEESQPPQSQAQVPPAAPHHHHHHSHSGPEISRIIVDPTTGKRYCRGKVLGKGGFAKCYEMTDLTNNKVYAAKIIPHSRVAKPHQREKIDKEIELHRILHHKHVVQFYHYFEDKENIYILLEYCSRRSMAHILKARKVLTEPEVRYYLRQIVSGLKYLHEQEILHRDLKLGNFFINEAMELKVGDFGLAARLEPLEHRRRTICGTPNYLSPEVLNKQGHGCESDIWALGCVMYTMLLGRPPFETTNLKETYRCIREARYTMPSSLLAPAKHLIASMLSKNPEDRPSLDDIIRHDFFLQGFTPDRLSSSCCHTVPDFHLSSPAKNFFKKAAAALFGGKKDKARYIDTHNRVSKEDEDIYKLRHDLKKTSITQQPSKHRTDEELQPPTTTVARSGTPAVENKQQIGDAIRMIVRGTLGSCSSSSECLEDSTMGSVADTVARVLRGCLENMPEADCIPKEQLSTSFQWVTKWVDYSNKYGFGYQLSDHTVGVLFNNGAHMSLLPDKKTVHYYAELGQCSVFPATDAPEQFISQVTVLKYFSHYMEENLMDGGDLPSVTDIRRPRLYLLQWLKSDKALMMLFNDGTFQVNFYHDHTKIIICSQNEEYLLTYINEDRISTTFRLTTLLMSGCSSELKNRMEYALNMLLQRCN
T3 sequence (P52333 whole entry): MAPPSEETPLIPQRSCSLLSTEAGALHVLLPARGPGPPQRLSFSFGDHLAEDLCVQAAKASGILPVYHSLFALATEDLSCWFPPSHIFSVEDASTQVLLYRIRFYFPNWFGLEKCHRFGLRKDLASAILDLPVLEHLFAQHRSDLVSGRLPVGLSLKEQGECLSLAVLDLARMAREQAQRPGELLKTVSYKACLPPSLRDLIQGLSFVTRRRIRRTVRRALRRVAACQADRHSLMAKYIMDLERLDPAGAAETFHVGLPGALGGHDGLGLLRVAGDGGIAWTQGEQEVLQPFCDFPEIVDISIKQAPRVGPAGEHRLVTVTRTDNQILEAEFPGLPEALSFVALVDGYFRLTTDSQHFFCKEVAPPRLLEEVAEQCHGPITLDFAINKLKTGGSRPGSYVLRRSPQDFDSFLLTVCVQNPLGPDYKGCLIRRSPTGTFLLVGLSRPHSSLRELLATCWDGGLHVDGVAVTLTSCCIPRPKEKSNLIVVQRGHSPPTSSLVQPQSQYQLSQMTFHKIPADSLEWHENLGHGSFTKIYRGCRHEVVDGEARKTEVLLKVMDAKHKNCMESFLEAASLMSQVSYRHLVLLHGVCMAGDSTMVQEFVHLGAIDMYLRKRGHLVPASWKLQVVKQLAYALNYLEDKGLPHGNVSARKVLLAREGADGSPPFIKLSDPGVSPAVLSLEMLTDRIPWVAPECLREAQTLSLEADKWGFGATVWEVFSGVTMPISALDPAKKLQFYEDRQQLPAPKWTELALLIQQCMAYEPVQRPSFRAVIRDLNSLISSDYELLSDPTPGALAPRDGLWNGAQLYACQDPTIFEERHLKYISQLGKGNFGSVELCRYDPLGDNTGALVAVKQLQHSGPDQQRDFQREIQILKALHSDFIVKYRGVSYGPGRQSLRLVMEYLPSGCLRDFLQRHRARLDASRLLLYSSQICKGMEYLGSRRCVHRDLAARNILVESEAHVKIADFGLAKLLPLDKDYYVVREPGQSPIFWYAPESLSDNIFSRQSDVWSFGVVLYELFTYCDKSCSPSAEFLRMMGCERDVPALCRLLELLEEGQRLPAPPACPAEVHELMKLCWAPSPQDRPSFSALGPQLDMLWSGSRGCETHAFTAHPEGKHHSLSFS

On to `Cn1c(=O)[nH]c2ccc(-c3cccc(C(=O)NC4CCn5ccnc5C4)c3)cc21` (stereo not drawn) [Z36-MP5], for which the remaining binding at 1 µM in [1] was 84%; on ALK(L1196M), 78%; on CAMK2B, 91%; on CDK4-cyclinD1, 67%; on CHEK1, 93%; on CSNK1E, 49%. Further, the remaining binding at 1 µM on DMPK amounted to 99%; at EGFR(L858R,T790M), 39%; on EPHB4, 84%; at FLT3(N841I) it was 63%; in [2], 70%; on MEK1 it was 63%. The remaining binding at 1 µM on MRCKB was 92%; on NEK7, 89%; at PHKG2, 83%; at PIK3CA(E545K), 48%; at PIP5K1A, 57%; on PIP5K2B, 54%. For the same compound, the remaining binding at 1 µM came to 55% at PLK2; 88% on PRKG2; 99% at PRKR; 75% in experiment [3]; 52% on TRKB; 59% on WNK1.
